The subject of assay [1] is chronic hepatitis C infection. Particulars: cited from earlier work.
Assay [2] deals with T1, ROCK2 (Homo sapiens, UniProt O75116).
T1 construct: T7 phage fusion (kinase-tagged phage) or DNA tag for qPCR detection
In words: ROCK2 kinase binding affinity, DiscoverX KINOMEscan KdELECT. Conditions: for Kd: KINOMEscan KdELECT, 11-point 3-fold dilution, read-out: Kd (μM) ROCK2; for ROCK2 Selectivity: selectivity for ROCK2 over ROCK1 from Kd. An outline of the steps: (§1)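 Competition binding of DNA- or phage-tagged kinase to immobilised ligand beads, with bound kinase quantified by qPCR of eluates.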

For assay [3], the target named is T2, ROCK1 (Homo sapiens, UniProt Q13464).
T2 construct: T7 phage fusion (kinase-tagged phage) or DNA tag for qPCR detection
In words: ROCK1 kinase binding affinity, DiscoverX KINOMEscan KdELECT. Particulars: 11-point 3-fold dilution. An outline of the steps:
as §1

The test system of assay [4] is HCC. Particulars: HCC patients at advanced stage; cited from earlier work.
For assay [5], the system named is Hepatic stellate cells. In words: Gel contraction assay (TGFβ1-induced). Format: cell-based. Particulars: test compound at 100 μM, 1 hour pretreatment, TGFβ1 24 hours. On the procedure:
Hepatic stellate cells were plated onto collagen coated plates and pretreated with test compound (at 100 μM) for 1 hour. TGFβ1 is then added for 24 hours, and images are taken.

Where two headings read alike, the source gives them in different places.

T2 sequence (Q13464 whole entry, the tested form may be a part): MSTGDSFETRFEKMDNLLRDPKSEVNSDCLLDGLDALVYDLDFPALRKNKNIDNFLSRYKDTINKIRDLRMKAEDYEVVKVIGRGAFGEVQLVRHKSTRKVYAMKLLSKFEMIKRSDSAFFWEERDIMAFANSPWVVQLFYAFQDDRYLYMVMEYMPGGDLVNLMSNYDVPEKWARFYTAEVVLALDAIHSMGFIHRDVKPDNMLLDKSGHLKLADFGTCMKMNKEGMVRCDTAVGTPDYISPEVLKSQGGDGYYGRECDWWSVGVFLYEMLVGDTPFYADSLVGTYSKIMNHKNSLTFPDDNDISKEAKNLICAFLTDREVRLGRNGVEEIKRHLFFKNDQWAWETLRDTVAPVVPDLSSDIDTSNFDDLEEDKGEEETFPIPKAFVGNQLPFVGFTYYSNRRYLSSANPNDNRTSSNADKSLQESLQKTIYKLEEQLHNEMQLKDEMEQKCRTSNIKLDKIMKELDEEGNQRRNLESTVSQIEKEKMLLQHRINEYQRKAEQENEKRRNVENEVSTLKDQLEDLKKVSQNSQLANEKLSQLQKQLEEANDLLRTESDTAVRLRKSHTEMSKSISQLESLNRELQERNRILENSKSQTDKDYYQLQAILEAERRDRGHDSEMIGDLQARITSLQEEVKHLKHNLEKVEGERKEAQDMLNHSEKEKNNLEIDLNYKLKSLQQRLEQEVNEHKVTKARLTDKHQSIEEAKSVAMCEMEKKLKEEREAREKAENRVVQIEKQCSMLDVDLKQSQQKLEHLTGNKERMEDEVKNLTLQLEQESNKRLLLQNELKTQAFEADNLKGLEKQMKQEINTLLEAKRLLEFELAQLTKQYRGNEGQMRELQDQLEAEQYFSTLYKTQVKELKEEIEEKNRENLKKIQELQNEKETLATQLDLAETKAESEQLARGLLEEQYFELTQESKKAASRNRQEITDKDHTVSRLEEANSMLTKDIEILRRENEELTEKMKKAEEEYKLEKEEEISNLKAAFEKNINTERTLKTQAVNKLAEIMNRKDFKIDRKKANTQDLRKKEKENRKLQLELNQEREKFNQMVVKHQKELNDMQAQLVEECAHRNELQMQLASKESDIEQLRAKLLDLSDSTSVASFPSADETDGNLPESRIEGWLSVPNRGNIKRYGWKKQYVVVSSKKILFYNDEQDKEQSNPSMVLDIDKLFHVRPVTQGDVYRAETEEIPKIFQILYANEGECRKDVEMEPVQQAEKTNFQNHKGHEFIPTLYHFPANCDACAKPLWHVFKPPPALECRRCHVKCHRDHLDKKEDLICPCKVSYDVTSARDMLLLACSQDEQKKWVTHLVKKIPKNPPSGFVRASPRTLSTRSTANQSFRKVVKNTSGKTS
T1 sequence (O75116 whole entry, the tested form may be a part): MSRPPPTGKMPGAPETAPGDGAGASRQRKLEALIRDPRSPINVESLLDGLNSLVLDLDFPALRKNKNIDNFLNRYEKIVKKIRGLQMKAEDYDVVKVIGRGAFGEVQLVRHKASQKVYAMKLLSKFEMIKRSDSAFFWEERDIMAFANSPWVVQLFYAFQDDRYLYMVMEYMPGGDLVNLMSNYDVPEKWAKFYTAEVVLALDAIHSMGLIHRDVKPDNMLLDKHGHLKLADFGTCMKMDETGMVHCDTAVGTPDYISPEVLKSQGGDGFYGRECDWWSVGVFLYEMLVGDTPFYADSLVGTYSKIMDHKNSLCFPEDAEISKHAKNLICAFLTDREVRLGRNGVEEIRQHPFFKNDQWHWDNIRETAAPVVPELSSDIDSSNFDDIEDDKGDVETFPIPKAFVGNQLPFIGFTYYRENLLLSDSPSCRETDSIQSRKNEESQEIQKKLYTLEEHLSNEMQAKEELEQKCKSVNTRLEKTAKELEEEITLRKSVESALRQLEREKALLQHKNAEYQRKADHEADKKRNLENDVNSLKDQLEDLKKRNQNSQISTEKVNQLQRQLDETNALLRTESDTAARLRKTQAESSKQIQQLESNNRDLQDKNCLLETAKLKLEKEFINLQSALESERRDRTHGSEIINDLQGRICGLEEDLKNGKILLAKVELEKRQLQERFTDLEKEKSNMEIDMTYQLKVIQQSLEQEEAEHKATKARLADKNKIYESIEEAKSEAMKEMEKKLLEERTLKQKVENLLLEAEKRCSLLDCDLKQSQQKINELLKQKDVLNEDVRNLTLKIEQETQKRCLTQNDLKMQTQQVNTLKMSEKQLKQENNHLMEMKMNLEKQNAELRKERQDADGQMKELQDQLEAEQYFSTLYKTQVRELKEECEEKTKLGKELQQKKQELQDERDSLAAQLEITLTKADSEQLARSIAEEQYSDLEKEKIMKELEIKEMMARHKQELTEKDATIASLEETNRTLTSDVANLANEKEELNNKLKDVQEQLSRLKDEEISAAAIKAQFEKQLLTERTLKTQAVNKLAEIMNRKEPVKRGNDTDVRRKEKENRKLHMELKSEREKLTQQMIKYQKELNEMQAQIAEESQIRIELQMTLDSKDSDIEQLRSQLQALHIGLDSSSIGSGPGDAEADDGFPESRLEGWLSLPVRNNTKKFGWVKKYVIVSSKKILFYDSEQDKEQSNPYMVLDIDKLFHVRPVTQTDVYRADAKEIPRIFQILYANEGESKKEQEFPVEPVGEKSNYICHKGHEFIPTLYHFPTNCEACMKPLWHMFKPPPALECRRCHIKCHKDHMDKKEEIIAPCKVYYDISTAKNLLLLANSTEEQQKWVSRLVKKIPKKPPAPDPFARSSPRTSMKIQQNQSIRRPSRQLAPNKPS

In the case of interferon, the results for the “response to antiviral therapy” value in assay [1] (in combination with ribavirin) and in assay [1] (used alone) were approximately 50% and approximately 20%, respectively.

What is called Kd is the free concentration of one partner at which half of the binding sites on the other are occupied at equilibrium, for simple one-to-one binding. On to `Fc1ccc(CNc2nccc(-c3nccc(C#Cc4ccc5[nH]ncc5c4)n3)n2)cc1` [Ex. 8, 4-((1H-Indazol-5-yl)ethynyl)-N-(4-fluorobenzyl)-[2,4′-bipyrimidin]-2′-amine], for which, in assay [2], the Kd is 0.01 to 0.099 µM and the “ROCK2 Selectivity” value is “*** (151 to 500-fold selectivity for ROCK2)”. Besides, in assay [3], the Kd is 1 to 9.9 µM.

For the compound `Cc1cnc(F)c(CNc2nccc(-c3nccc(C#Cc4ccc5[nH]ncc5c4)n3)n2)c1` [Ex. 72, 4-((1H-Indazol-5-yl)ethynyl)-N-((2-fluoro-5-methylpyridin-3-yl)methyl)-[2,4′-bipyrimidin]-2′-amine], in assay [2], the dissociation constant (Kd) was 10 to 100 µM and the “ROCK2 Selectivity” value is “* (<50-fold selectivity for ROCK2)”. Also, in assay [3], the equilibrium dissociation constant (Kd) lay in the range of 10 to 100 µM.

For `Fc1ccc(CNc2nccc(-c3nccc(C#Cc4cc(F)c5[nH]ncc5c4)n3)n2)nc1` [Ex. 36, 4-((7-Fluoro-1H-indazol-5-yl)ethynyl)-N-((5-fluoropyridin-2-yl)methyl)-[2,4′-bipyrimidin]-2′-amine], the results for the dissociation constant Kd in assay [2] and in assay [3] were 0.01 to 0.099 µM and 1 to 9.9 µM, respectively. In addition, the “ROCK2 Selectivity” value in assay [2] is “** (50 to 150-fold selectivity for ROCK2)”.

For `C(#Cc1ccnc(-c2ccnc(NCc3cc4ccccc4cn3)n2)n1)c1ccc2[nH]ncc2c1` [Ex. 25, 4-((1H-Indazol-5-yl)ethynyl)-N-(isoquinolin-3-ylmethyl)-[2,4′-bipyrimidin]-2′-amine], in assay [2], the Kd lay within 0.01 to 0.099 µM and the “ROCK2 Selectivity” value is “* (<50-fold selectivity for ROCK2)”. In addition, the Kd in assay [3] lay within 0.1 to 0.99 µM.

For `COc1ccnc(CNc2nccc(-c3nccc(C#Cc4ccc5[nH]ncc5c4)n3)n2)c1` [Ex. 11, 4-((1H-Indazol-5-yl)ethynyl)-N-((4-methoxypyridin-2-yl)methyl)-[2,4′-bipyrimidin]-2′-amine], in assay [2], the equilibrium dissociation constant (Kd) lay within 0.01 to 0.099 µM and the “ROCK2 Selectivity” value is listed as “** (50 to 150-fold selectivity for ROCK2)”. This compound also returned a Kd in assay [3] of 0.1 to 0.99 µM.

Turning to `Fc1cnccc1CNc1nccc(-c2nccc(C#Cc3ccc4[nH]ncc4c3)n2)n1` [Ex. 31, 4-((1H-Indazol-5-yl)ethynyl)-N-((3-fluoropyridin-4-yl)methyl)-[2,4′-bipyrimidin]-2′-amine], in assay [2], the Kd was 0.01 to 0.099 µM and the “ROCK2 Selectivity” value is “** (50 to 150-fold selectivity for ROCK2)”. This compound yielded a dissociation constant Kd in assay [3] of 1 to 9.9 µM.

With `COC(=O)[C@H]1CC[C@H](Nc2nccc(-c3nccc(C#Cc4ccc5[nH]ncc5c4)n3)n2)CC1` [Ex. 86, (1r,4r)-Methyl 4-((4-((1H-indazol-5-yl)ethynyl)-[2,4′-bipyrimidin]-2′-yl)amino)cyclohexanecarboxylate], in assay [2], the dissociation constant (Kd) was less than 0.01 µM and the “ROCK2 Selectivity” value is recorded as “*** (151 to 500-fold selectivity for ROCK2)”. In assay [3], this compound displayed a dissociation constant Kd of 0.1 to 0.99 µM.

Turning to `[2H]C([2H])(Nc1nccc(-c2nccc(C#Cc3ccc4[nH]ncc4c3)n2)n1)c1ccccn1` [Ex. 66, 4-((1H-Indazol-5-yl)ethynyl)-N-(pyridin-2-ylmethyl-d2)-[2,4′-bipyrimidin]-2′-amine], the dissociation constant Kd was less than 0.01 µM in assay [2] and 0.1 to 0.99 µM in assay [3]. The “ROCK2 Selectivity” value in assay [2] is on record as “** (50 to 150-fold selectivity for ROCK2)”.

For the compound `CN(C)CCNc1nccc(-c2nccc(C#Cc3ccc4[nH]ncc4c3)n2)n1` [Ex. 54, N1-(4-((1H-Indazol-5-yl)ethynyl)-[2,4′-bipyrimidin]-2′-yl)-N2,N2-dimethylethane-1,2-diamine], in assay [2], the Kd lay in the range of 0.1 to 0.99 µM and the “ROCK2 Selectivity” value is “* (<50-fold selectivity for ROCK2)”. The compound further returned a dissociation constant (Kd) in assay [3] of 1 to 9.9 µM.

As to `O[C@@H]1CC[C@@H](Nc2nccc(-c3nccc(C#Cc4ccc5[nH]ncc5c4)n3)n2)C1` [Ex. 78, (1R,3R)-3-((4-((1H-Indazol-5-yl)ethynyl)-[2,4′-bipyrimidin]-2′-yl)amino)cyclopentanol], in assay [2], the Kd is less than 0.01 µM and the “ROCK2 Selectivity” value is on record as “*** (151 to 500-fold selectivity for ROCK2)”. The same compound returned a dissociation constant (Kd) in assay [3] of 1 to 9.9 µM.

As to `C(#Cc1ccnc(-c2ccnc(NCc3ncccn3)n2)n1)c1ccc2[nH]ncc2c1` [Ex. 7, 4-((1H-indazol-5-yl)ethynyl)-N-(pyrimidin-2-ylmethyl)-[2,4′-bipyrimidin]-2′-amine], in assay [2], the dissociation constant Kd fell in the range of 0.01 to 0.099 µM and the “ROCK2 Selectivity” value was “* (<50-fold selectivity for ROCK2)”. In assay [3], the Kd fell in the range of 0.1 to 0.99 µM.

Consider `C(#Cc1ccnc(-c2ccnc(NCc3ccco3)n2)n1)c1ccc2[nH]ncc2c1` [Ex. 40, 4-((1H-Indazol-5-yl)ethynyl)-N-(furan-2-ylmethyl)-[2,4′-bipyrimidin]-2′-amine], for which, in assay [2], the dissociation constant Kd fell in the range of 0.01 to 0.099 µM and the “ROCK2 Selectivity” value is “* (<50-fold selectivity for ROCK2)”. The Kd in assay [3] lay within 0.1 to 0.99 µM.

`O=C(O)[C@H]1CC[C@H](Nc2nccc(-c3nccc(C#Cc4ccc5[nH]ncc5c4)n3)n2)CC1` [Ex. 87, (1r,4r)-4-((4-((1H-Indazol-5-yl)ethynyl)-[2,4′-bipyrimidin]-2′-yl)amino)cyclohexanecarboxylic acid]: the dissociation constant Kd in assay [2] lay within 0.1 to 0.99 µM; in assay [3], 1 to 9.9 µM. Moreover, in assay [2], the “ROCK2 Selectivity” value is “* (<50-fold selectivity for ROCK2)”.

Regarding `O[C@H]1CC[C@@H](Nc2nccc(-c3nccc(C#Cc4ccc5[nH]ncc5c4)n3)n2)C1` [Ex. 82, (1S,3R)-3-((4-((1H-Indazol-5-yl)ethynyl)-[2,4′-bipyrimidin]-2′-yl)amino)cyclopentanol], the results for the dissociation constant (Kd) in assay [2] and in assay [3] were less than 0.01 µM and 0.1 to 0.99 µM, respectively. For the same compound, in assay [2], the “ROCK2 Selectivity” value is on record as “**** (>500-fold selectivity for ROCK2)”.

Take `FC(F)(F)c1ccc(CNc2nccc(-c3nccc(C#Cc4ccc5[nH]ncc5c4)n3)n2)nc1` [Ex. 48, 4-((1H-Indazol-5-yl)ethynyl)-N-((5-(trifluoromethyl)pyridin-2-yl)methyl)-[2,4′-bipyrimidin]-2′-amine]: the equilibrium dissociation constant (Kd) in assay [2] was less than 0.01 µM; in assay [3] it was 0.1 to 0.99 µM. In assay [2], the “ROCK2 Selectivity” value was “** (50 to 150-fold selectivity for ROCK2)”.

For the compound `CNC(=O)c1cc(Oc2ccc(NC(=O)Nc3ccc(Cl)c(C(F)(F)F)c3)cc2)ccn1` [sorafenib], in assay [4], the “extension of median survival” value is “less than 3 months”.

As to `CC(Nc1nccc(-c2nccc(C#Cc3ccc4[nH]ncc4c3)n2)n1)c1ccc(F)cn1` (stereo not shown) [Ex. 28, 4-((1H-Indazol-5-yl)ethynyl)-N-(1-(5-fluoropyridin-2-yl)ethyl)-[2,4′-bipyrimidin]-2′-amine], the Kd in assay [2] was 0.01 to 0.099 µM; in assay [3], 1 to 9.9 µM. Besides, in assay [2], the “ROCK2 Selectivity” value is “* (<50-fold selectivity for ROCK2)”.

Regarding `Fc1cc(F)c(F)c(CNc2nccc(-c3nccc(C#Cc4ccc5[nH]nc(F)c5c4)n3)n2)c1` [Ex. 60, 4-((3-Fluoro-1H-indazol-5-yl)ethynyl)-N-(2,3,5-trifluorobenzyl)-[2,4′-bipyrimidin]-2′-amine], in assay [2], the Kd lay within 1 to 9.9 µM and the “ROCK2 Selectivity” value is “* (<50-fold selectivity for ROCK2)”. The compound further registered an equilibrium dissociation constant (Kd) in assay [3] of 10 to 100 µM.

Turning to `O[C@H]1CC[C@H](Nc2nccc(-c3nccc(C#Cc4ccc5[nH]ncc5c4)n3)n2)C1` [Ex. 90, (1S,3S)-3-((4-((1H-Indazol-5-yl)ethynyl)-[2,4′-bipyrimidin]-2′-yl)amino)cyclopentanol], in assay [2], the Kd was less than 0.01 µM and the “ROCK2 Selectivity” value is given as “*** (151 to 500-fold selectivity for ROCK2)”. The Kd in assay [3] lay in the range of 1 to 9.9 µM.

`C(#Cc1ccnc(-c2ccnc(NCC3CCCC3)n2)n1)c1ccc2[nH]ncc2c1` [Ex. 44, 4-((1H-Indazol-5-yl)ethynyl)-N-(cyclopentylmethyl)-[2,4′-bipyrimidin]-2′-amine]: in assay [2], the Kd was 0.01 to 0.099 µM and the “ROCK2 Selectivity” value is “*** (151 to 500-fold selectivity for ROCK2)”. In assay [3], this compound showed a Kd of 10 to 100 µM.

Consider `C(#Cc1ccnc(-c2ccnc(NCC3CCCN3)n2)n1)c1ccc2[nH]ncc2c1` (stereo not shown) [Ex. 5, 4-((1H-Indazol-5-yl)ethynyl)-N-(pyrrolidin-2-ylmethyl)-[2,4′-bipyrimidin]-2′-amine], for which, in assay [2], the dissociation constant Kd was in the range of 0.01 to 0.099 µM and the “ROCK2 Selectivity” value is listed as “* (<50-fold selectivity for ROCK2)”. The Kd in assay [3] was 0.1 to 0.99 µM.

Take `O[C@H]1CC[C@@H](Nc2nccc(-c3nccc(C#Cc4ccc5[nH]nc(F)c5c4)n3)n2)CC1` [Ex. 93, (1s,4s)-4-((4-((3-Fluoro-1H-Indazol-5-yl)ethynyl)-[2,4′-bipyrimidin]-2′-yl)amino)cyclohexanol]: in assay [2], the Kd is less than 0.01 µM and the “ROCK2 Selectivity” value is “**** (>500-fold selectivity for ROCK2)”. The “TGFβ1-induced gel contraction in hepatic stellate cells” value in assay [5] is recorded as “significantly attenuated”. The compound also came in with a Kd in assay [3] of 1 to 9.9 µM.

`Fc1cccc(F)c1CNc1nccc(-c2nccc(C#Cc3ccc4[nH]ncc4c3)n2)n1` [Ex. 27, 4-((1H-Indazol-5-yl)ethynyl)-N-(2,6-difluorobenzyl)-[2,4′-bipyrimidin]-2′-amine]: in assay [2], the Kd was in the range of 0.1 to 0.99 µM and the “ROCK2 Selectivity” value is “** (50 to 150-fold selectivity for ROCK2)”. In addition, the Kd in assay [3] lay within 10 to 100 µM.

Turning to `Fc1ccnc(CNc2nccc(-c3nccc(C#Cc4ccc5[nH]ncc5c4)n3)n2)c1` [Ex. 10, 4-((1H-Indazol-5-yl)ethynyl)-N-((4-fluoropyridin-2-yl)methyl)-[2,4′-bipyrimidin]-2′-amine], the dissociation constant (Kd) in assay [2] fell in the range of 0.01 to 0.099 µM; in assay [3], 1 to 9.9 µM. Further, in assay [2], the “ROCK2 Selectivity” value is on record as “** (50 to 150-fold selectivity for ROCK2)”.

Consider `CN1CCN(C(=O)CNc2nccc(-c3nccc(C#Cc4ccc5[nH]ncc5c4)n3)n2)CC1` [Ex. 73, 2-((4-((1H-Indazol-5-yl)ethynyl)-[2,4′-bipyrimidin]-2′-yl)amino)-1-(4-methylpiperazin-1-yl)ethanone], for which, in assay [2], the Kd was 0.01 to 0.099 µM and the “ROCK2 Selectivity” value was “* (<50-fold selectivity for ROCK2)”. The Kd in assay [3] lay within 0.1 to 0.99 µM.

(Values after patent US20230295131A1, “INHIBITORS OF RHO-ASSOCIATED COILED-COIL KINASE” (Angion Biomedica Corp., priority 2020, published 2023).)
